Test results taken from ChEMBL document CHEMBL1157196, “Structure-based discovery of a novel non-peptidic small molecular inhibitor of caspase-3” (Bioorg Med Chem, 2008).

Key:
Caspase-3 = biological target: T1, Caspase-3 (Homo sapiens, UniProt P42574); experiment: Inhibition of human recombinant caspase 3 preincubated for 10 mins
T1 sequence (P42574 whole entry): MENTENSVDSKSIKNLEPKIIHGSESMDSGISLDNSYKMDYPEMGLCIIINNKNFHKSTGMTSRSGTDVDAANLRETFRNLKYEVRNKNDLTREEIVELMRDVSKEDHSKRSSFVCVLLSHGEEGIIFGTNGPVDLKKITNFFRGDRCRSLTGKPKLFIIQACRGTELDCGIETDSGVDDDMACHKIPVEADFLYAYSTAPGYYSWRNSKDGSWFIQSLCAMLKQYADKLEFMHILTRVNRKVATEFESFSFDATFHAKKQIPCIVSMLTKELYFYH

Caspase-7 = biological target: T2, Caspase-7 (Homo sapiens, UniProt P55210); experiment: Inhibition of human recombinant caspase 7 preincubated for 10 mins
T2 sequence (P55210 whole entry): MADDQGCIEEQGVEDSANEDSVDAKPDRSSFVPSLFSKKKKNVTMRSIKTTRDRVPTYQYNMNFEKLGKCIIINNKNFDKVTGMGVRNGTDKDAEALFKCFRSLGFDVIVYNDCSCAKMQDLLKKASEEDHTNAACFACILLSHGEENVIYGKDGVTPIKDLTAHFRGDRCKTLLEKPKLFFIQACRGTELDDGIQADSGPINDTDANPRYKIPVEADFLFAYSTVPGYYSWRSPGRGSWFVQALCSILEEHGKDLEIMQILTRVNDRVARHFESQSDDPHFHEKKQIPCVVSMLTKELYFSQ

Caspase-8 = Caspase-8 (Homo sapiens, UniProt Q14790); experiment: Inhibition of human recombinant caspase 8 preincubated for 10 mins
Chain of Caspase-8 (Q14790 217-374 limits assumed): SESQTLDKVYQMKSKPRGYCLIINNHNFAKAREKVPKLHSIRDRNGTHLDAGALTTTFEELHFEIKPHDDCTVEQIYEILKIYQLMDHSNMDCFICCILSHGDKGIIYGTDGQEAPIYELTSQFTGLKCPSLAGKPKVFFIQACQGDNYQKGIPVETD
Chain of Caspase-8 (Q14790 385-479 limits assumed): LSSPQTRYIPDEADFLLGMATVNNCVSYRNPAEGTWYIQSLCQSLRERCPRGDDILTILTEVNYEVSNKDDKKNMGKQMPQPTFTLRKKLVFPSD

Caspase-9 = biological target: T3, Caspase-9 (Homo sapiens, UniProt P55211); experiment: Inhibition of human recombinant caspase 9 preincubated for 10 mins
T3 sequence (P55211 whole entry): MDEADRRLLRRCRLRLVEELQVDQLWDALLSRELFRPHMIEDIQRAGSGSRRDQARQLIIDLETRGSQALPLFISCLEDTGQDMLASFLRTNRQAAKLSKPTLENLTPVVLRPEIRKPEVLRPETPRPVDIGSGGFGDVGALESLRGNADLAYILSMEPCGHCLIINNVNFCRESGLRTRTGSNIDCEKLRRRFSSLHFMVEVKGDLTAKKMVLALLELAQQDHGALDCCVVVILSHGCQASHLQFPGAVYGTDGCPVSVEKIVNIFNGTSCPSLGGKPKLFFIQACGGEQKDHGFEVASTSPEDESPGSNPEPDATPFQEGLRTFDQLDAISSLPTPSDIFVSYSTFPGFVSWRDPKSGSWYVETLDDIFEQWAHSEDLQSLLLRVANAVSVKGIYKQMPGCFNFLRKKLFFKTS

- IC50 (Caspase-3): 13.6 µM
- IC50 (Caspase-7): 84.9 µM
- IC50 (Caspase-8): > 100 µM
- IC50 (Caspase-9): 93 µM
Structure (SMILES): CCOC(=O)COc1cc(C(=O)O)c(O)c2ccccc12
